Key:
Format in all cases: in vivo, human
[1] = system: C. difficile infection (CDI); test: CDI trial: enteric symptoms at TOC
From the text: Table 41 sets forth a summary of the enteric symptoms at TOC.

[2] = system: patients with diarrhea-predominant IBS; test: IBS-QOL questionnaire, rifaximin 550 mg BID vs placebo in d-IBS
Procedure: Both groups received placebo for an additional 14 days after the initial 2-week treatment. Quality of life was assessed with the 34-item IBS-QOL questionnaire at baseline and 4 weeks after initiating treatment. Each item was scored on a 5-point scale (1=not at all; 2=slightly; 3=moderately; 4=quite a bit; and 5=extremely or a great deal). Results for composite and subscale scores were converted to a scale ranging from 0 to 100, with higher scores indicating better QOL.
Following a 2-week initial treatment period, both groups of patients received placebo for an additional 14 days. Quality of life was assessed via the 34-item IBS-QOL questionnaire at baseline and 4 weeks after initiating treatment. Each item was scored on a 5-point scale (1=not at all; 2=slightly; 3=moderately; 4=quite a bit; 5=extremely or a great deal); results for composite and subscale scores were converted to a scale ranging from 0 to 100, with higher scores indicating better QOL.

[3] = system: patients with non-constipation IBS (non-C IBS); test: Stool frequency, rifaximin 550 mg TID study
[4] = system: C. difficile infection (CDI); test: CDI trial: continuing illnesses
[5] = system: C. difficile infection (CDI); test: CDI trial: recurrence of CDI, recurrence rate per person-year
From the text: Recurrence was defined to be a diarrhea and a positive C. diff stool toxin assay that occurred after initial clinical success.

[6] = system: patients with non-constipation IBS (non-C IBS); test: Adequate relief of IBS symptoms and IBS symptom of bloating (weekly SGA, daily measures), rifaximin 550 mg TID 14 days
From the text: A measure of efficacy was based on subjects' answers to the Weekly Subject Global Assessment (SGA) questions over the 4 week study duration in relation to their IBS symptoms. […] The SGA question was asked weekly as follows: “In the past 7 days, have you had adequate relief of your IBS symptom of bloating?” (Yes/No).
The primary efficacy endpoint of the study was the proportion of subjects who achieved adequate relief of IBS symptoms for at least 2 weeks during the first 4 weeks of the 10-week follow-up phase.
Two measures of efficacy were assessed.
Subjects were questioned on the relief of overall IBS symptoms and bloating. […] The analyses defined success as a “yes” response to questions regarding adequate relief.
All subpopulations in the study responded to therapy. Baseline severity was determined during screening for Abdominal Pain/Discomfort and Bloating, and the number, type (normal, hard, loose) and urgency of bowel movements. Duration of effect was assessed in a ten week follow-up period.

[7] = Rifaximin N = 108, Vancomycin N = 111
[8] = Rifaximin N = 117, Vancomycin N = 115
[9] = after initial clinical success, Rifaximin N = 67, Vancomycin N = 73
[10] = all subjects, Rifaximin N = 117, Vancomycin N = 115
[11] = Age Group: <65 (N = 281), 550 mg TID
[12] = Gender: Female (N = 226), 550 mg TID
[13] = Gender: Male (N = 85), 550 mg TID
[14] = IBS Subtype: Alternating-predominant, 550 mg TID
[15] = IBS Subtype: Diarrhoea-predominant, 550 mg TID
[16] = Population: ITT (N = 315), 550 mg TID
[17] = Population: PP (N = 311), 550 mg TID
[18] = Population: PP (N = 311), weekly SGA, 550 mg TID
[19] = Race: Non-White (N = 31), 550 mg TID
[20] = Race: White (N = 280), 550 mg TID
[21] = oral rifaximin 550 mg TID 14 days vs subjects not taking rifaximin
[22] = weekly SGA, at least 2 of Weeks 3 through 6, 550 mg TID (N = 315)
[23] = weekly SGA, 550 mg TID (N = 315)

CO[C@H]1/C=C/O[C@@]2(C)Oc3c(C)c(O)c4c(O)c(c5c(nc6cc(C)ccn65)c4c3C2=O)NC(=O)/C(C)=C\C=C\[C@H](C)[C@H](O)[C@@H](C)[C@@H](O)[C@@H](C)[C@H](OC(C)=O)[C@@H]1C [Rifaximin, (2S,16Z,18E,20S,21S,22R, 23R,24R,25S,26S,27S,28E)-5,6,21,23,25 Pentahydroxy-27-methoxy-2,4,11,16,20,22,24,26-octamethyl-2,7-(epoxypentadeca-(1,11,13)trienimino) benzofuro (4,5-e) pyrido(1,2,-a) benzimidazole-1,15(2H)-dione,25-acetate]
Diarrhea: No, number of subjects [1, 7]: 86 | Diarrhea: No, percent of subjects [1, 7]: (80%) | Diarrhea: Yes, number of subjects [1, 7]: 22 | Diarrhea: Yes, percent of subjects [1, 7]: (20%) | Fever: No, number of subjects [1, 7]: 98 | Fever: No, percent of subjects [1, 7]: (91%) | Fever: Yes, number of subjects [1, 7]: 10 | Fever: Yes, percent of subjects [1, 7]: (9%) | Severe Abdominal Pain/Discomfort: No, number of subjects [1, 7]: 80 | Severe Abdominal Pain/Discomfort: No, percent of subjects [1, 7]: (74%) | Severe Abdominal Pain/Discomfort: Yes, number of subjects [1, 7]: 28 | Severe Abdominal Pain/Discomfort: Yes, percent of subjects [1, 7]: (26%) | Diarrhea: Treatment Difference ([1]; Rifaximin vs Vancomycin): −1.5% | Fever: Treatment Difference ([1]; Rifaximin vs Vancomycin): −7.5% | Severe Abdominal Pain/Discomfort: Treatment Difference ([1]; Rifaximin vs Vancomycin): −11.5% | Mean Change From Baseline in IBS-QOL Scores at Week 4: Body image ([2]; Rifaximin 1100 mg/d (n = 191)): 20.1 | Mean Change From Baseline in IBS-QOL Scores at Week 4: Dysphoria ([2]; Rifaximin 1100 mg/d (n = 191)): 24.8 | Mean Change From Baseline in IBS-QOL Scores at Week 4: Food avoidance ([2]; Rifaximin 1100 mg/d (n = 191)): 25.0 | Mean Change From Baseline in IBS-QOL Scores at Week 4: Health worry ([2]; Rifaximin 1100 mg/d (n = 191)): 16.0 | Mean Change From Baseline in IBS-QOL Scores at Week 4: Interference with activity ([2]; Rifaximin 1100 mg/d (n = 191)): 22.2 | Mean Change From Baseline in IBS-QOL Scores at Week 4: Relationship ([2]; Rifaximin 1100 mg/d (n = 191)): 14.9 | Mean Change From Baseline in IBS-QOL Scores at Week 4: Sexual ([2]; Rifaximin 1100 mg/d (n = 191)): 13.6 | Mean Change From Baseline in IBS-QOL Scores at Week 4: Social reaction ([2]; Rifaximin 1100 mg/d (n = 191)): 17.3 | Mean Change From Baseline in IBS-QOL Scores at Week 4: Overall score ([2]; Rifaximin 1100 mg/d (n = 191), scale 0 to 100): 20.4 | Improvement with rifaximin over placebo, IBS-QOL: Body image ([2]; Week 4, 1100 mg/d): 37.4% | Improvement with rifaximin over placebo, IBS-QOL: Dysphoria ([2]; Week 4, 1100 mg/d): 25.3% | Improvement with rifaximin over placebo, IBS-QOL: Food avoidance ([2]; Week 4, 1100 mg/d): 22.1% | Improvement with rifaximin over placebo, IBS-QOL: Health worry ([2]; Week 4, 1100 mg/d): 30.6% | Improvement with rifaximin over placebo, IBS-QOL: Interference with activity ([2]; Week 4, 1100 mg/d): 22.2% | Improvement with rifaximin over placebo, IBS-QOL: Overall score ([2]; Week 4, 1100 mg/d): 28.7% | Improvement with rifaximin over placebo, IBS-QOL: Relationship ([2]; Week 4, 1100 mg/d): 39.5% | Improvement with rifaximin over placebo, IBS-QOL: Sexual ([2]; Week 4, 1100 mg/d): 24.9% | Improvement with rifaximin over placebo, IBS-QOL: Social reaction ([2]; Week 4, 1100 mg/d): 31.6% | % with decrease in SF (stool frequency) ([3]; Week 1): 14.4% | % with decrease in SF (stool frequency) ([3]; Week 2): 20.6% | % with decrease in SF (stool frequency) ([3]; Week 3): 22.2% | % with decrease in SF (stool frequency) ([3]; Week 4): 21.6% | % with decrease in SF (stool frequency) ([3]; Week 5): 25.7% | % with decrease in SF (stool frequency) ([3]; Week 6): 22.9% | % with decrease in SF (stool frequency) ([3]; Week 7): 23.8% | % with decrease in SF (stool frequency) ([3]; Week 8): 24.4% | % with decrease in SF (stool frequency) ([3]; Week 9): 25.4% | % with decrease in SF (stool frequency) ([3]; Week 10): 26.7% | % with decrease in SF (stool frequency) ([3]; Week 11): 25.4% | % with decrease in SF (stool frequency) ([3]; Week 12): 27.0% | Continuing Illness: No, number of subjects [4, 8]: 90 | Continuing Illness: No, percent of subjects [4, 8]: (77%) | Continuing Illness: Yes, number of subjects [4, 8]: 27 | Continuing Illness: Yes, percent of subjects [4, 8]: (23%) | Continuing Illness: Treatment Difference ([4]; Rifaximin vs Vancomycin): −9.2% | Recurrence Rate per Person-Year Exposure [5, 8]: 0.613 | Recurrence of CDI: Treatment Difference ([5]; Rifaximin vs Vancomycin, subjects with initial clinical success): 4.7% | No Recurrence of CDI, number of subjects [5, 9]: 61 | No Recurrence of CDI, percent of subjects [5, 9]: (91%) | Recurrence of CDI, number of subjects [5, 9]: 6 | Recurrence of CDI, percent of subjects [5, 9]: (9%) | Recurrence: No, number of subjects [5, 10]: 111 | Recurrence: No, percent of subjects [5, 10]: (95%) | Recurrence: Yes, number of subjects [5, 10]: 6 | Recurrence: Yes, percent of subjects [5, 10]: (5%) | Adequate Relief of IBS symptom of Bloating: Failure [6, 11]: 171 (60.9%) | Adequate Relief of IBS symptom of Bloating: Success [6, 11]: 110 (39.1%) | Adequate Relief of IBS symptoms: Failure [6, 11]: 171 (60.9%) | Adequate Relief of IBS symptoms: Success [6, 11]: 110 (39.1%) | Adequate Relief of IBS symptom of Bloating: Failure ([6]; Age Group: > = 65, 550 mg TID): 16 (53.3%) | Adequate Relief of IBS symptom of Bloating: Success ([6]; Age Group: > = 65, 550 mg TID): 14 (46.7%) | Adequate Relief of IBS symptoms: Failure ([6]; Age Group: > = 65, 550 mg TID): 16 (53.3%) | Adequate Relief of IBS symptoms: Success ([6]; Age Group: > = 65, 550 mg TID): 14 (46.7%) | Adequate Relief of IBS symptom of Bloating: Failure [6, 12]: 128 (56.6%) | Adequate Relief of IBS symptom of Bloating: Success [6, 12]: 98 (43.4%) | Adequate Relief of IBS symptoms: Failure [6, 12]: 130 (57.5%) | Adequate Relief of IBS symptoms: Success [6, 12]: 96 (42.5%) | Adequate Relief of IBS symptom of Bloating: Failure [6, 13]: 59 (69.4%) | Adequate Relief of IBS symptom of Bloating: Success [6, 13]: 26 (30.6%) | Adequate Relief of IBS symptoms: Failure [6, 13]: 57 (67.1%) | Adequate Relief of IBS symptoms: Success [6, 13]: 28 (32.9%) | Adequate Relief of IBS symptom of Bloating: Failure [6, 14]: 19 (55.9%) | Adequate Relief of IBS symptom of Bloating: Success [6, 14]: 15 (44.1%) | Adequate Relief of IBS symptoms: Failure [6, 14]: 21 (61.8%) | Adequate Relief of IBS symptoms: Success [6, 14]: 13 (38.2%) | Adequate Relief of IBS symptom of Bloating: Failure [6, 15]: 168 (60.6%) | Adequate Relief of IBS symptom of Bloating: Success [6, 15]: 109 (39.4%) | Adequate Relief of IBS symptoms: Failure [6, 15]: 166 (59.9%) | Adequate Relief of IBS symptoms: Success [6, 15]: 111 (40.1%) | Adequate Relief of IBS symptom of Bloating Based on Daily Measures: Failure [6, 16]: 182 (57.8%) | Adequate Relief of IBS symptom of Bloating Based on Daily Measures: Success [6, 16]: 133 (42.2%) | Adequate Relief of IBS symptoms Based on Daily Measures: Failure [6, 16]: 200 (63.5%) | Adequate Relief of IBS symptoms Based on Daily Measures: Success [6, 16]: 115 (36.5%) | Adequate Relief of IBS symptom of Bloating Based on Daily Measures: Failure [6, 17]: 180 (57.9%) | Adequate Relief of IBS symptom of Bloating Based on Daily Measures: Success [6, 17]: 131 (42.1%) | Adequate Relief of IBS symptoms Based on Daily Measures: Failure [6, 17]: 196 (63.0%) | Adequate Relief of IBS symptoms Based on Daily Measures: Success [6, 17]: 115 (37.0%) | Adequate Relief of IBS symptom of Bloating: Failure [6, 18]: 187 (60.1%) | Adequate Relief of IBS symptom of Bloating: Success [6, 18]: 124 (39.9%) | Adequate Relief of IBS symptoms: Failure [6, 18]: 187 (60.1%) | Adequate Relief of IBS symptoms: Success [6, 18]: 124 (39.9%) | Adequate Relief of IBS symptom of Bloating: Failure [6, 19]: 17 (54.8%) | Adequate Relief of IBS symptom of Bloating: Success [6, 19]: 14 (45.2%) | Adequate Relief of IBS symptoms: Failure [6, 19]: 16 (51.6%) | Adequate Relief of IBS symptoms: Success [6, 19]: 15 (48.4%) | Adequate Relief of IBS symptom of Bloating: Failure [6, 20]: 170 (60.7%) | Adequate Relief of IBS symptom of Bloating: Success [6, 20]: 110 (39.3%) | Adequate Relief of IBS symptoms: Failure [6, 20]: 171 (61.1%) | Adequate Relief of IBS symptoms: Success [6, 20]: 109 (38.9%) | Answers to weekly SGA question on adequate relief of IBS symptom of bloating [6, 21]: responded “Yes” more often | Answers to weekly SGA question on adequate relief of IBS symptoms [6, 21]: responded “Yes” more often | Adequate Relief of IBS symptom of Bloating: Success [6, 22]: 125 (39.7%) | Adequate Relief of IBS symptoms: Success [6, 22]: 125 (39.7%) | Adequate Relief of IBS symptom of Bloating: Failure [6, 23]: 190 (60.3%) | Adequate Relief of IBS symptoms: Failure [6, 23]: 190 (60.3%)

From US20130184302A1, “METHODS FOR TREATING IRRITABLE BOWEL SYNDROME (IBS) AND INFECTIONS” (priority 2011, published 2013)
